Data reported in US5607836A, “Methods of detecting compounds which bind to the P2U receptor” (The Curators of the University of Missouri, priority 1995, dated 1997).

Tests used:
human P2U receptor [1] = molecular target: T1, human P2U receptor (Homo sapiens, UniProt P41231); assay: intracellular calcium by fura-2 fluorescence in 1321N1 human astrocytoma cells expressing the cloned HP2U (LHP2USN); assay type: cell-based; conditions: for efficacy / effect in concentration-effect curves: HP2U clone expressed in 1321N1 cells
Description: (§1) Heteroloqous Expression. A retroviral vector-containing plasmid, pLHP2USN, was constructed by insertion of the cloned CF/T43 cDNA into the EcoRI and XhoI sites of pLXSN (A. Miller and G. Rosman, Biotechniques 7, 980 (1989)). An amphotrophic packaging cell line, PA317, was used to produce the LHP2USN retroviral vector and a control vector containing Neor only (LSN). Clonal human astrocytoma cells 1321N1, UNC strain, generously provided by T. K. Harden (UNC, Chapel Hill, N.C.), were plated at 150,000 cells per 60-mm dish and infected with LHP2USN or LSN (2 hr, 4 ug/ml Polybrene) and after 48 hr selected with 600 ug/ml G418 (Life Technologies, Inc., Gaithersburg, Md., U.S.A.). To assay for receptor activity, intracellular calcium concentration was measured in confluent cells on coverslips by fura-2 fluorescence using microspectrofluorimetry as previously described (S. Mason et al., Br. J. Pharmacol. 103, 1649 (1991)). Measurement of cell inositol phosphate formation was as described by H. Brown et al., Mol. Pharmacol. 40, 648 (1991), in accordance with known techniques.
(§2) A retrovirus expression system was employed to study the cloned CF/T43 HP2U cDNA in 1321N1 human astrocytoma cells. The effect of extracellular nuceotides on intracellular calcium, as measured by fura-2 fluorescence, was assessed in CF/T43 cells, uninfected 1321N1 cells, and 1321N1 cells infected with retroviral vector containing either the cloned HP2U or no insert (LSN).
To examine the pharmacological specifity of the HP2U clone expressed in 1321N1 cells, concentration-effect curves were generated for nucleotides and structural analogues active at P2X, P2Y and P2U receptors (data not shown). […] These concentration-effect relations are very similar to those reported for heterologously expressed murine P2U (Lustig, et al., supra) and virtually indistinguishable from data (not shown) generated for the endogenous CF/T43 and HT-29 receptors. Clearly, the agonist specifities fit the definition of the P2U receptor.

[2] = test system: P2T receptor of K562 cells; assay: cytoplasmic free calcium (fura-2) in untransfected or vector-transfected K562 cells; assay type: cell-based, human; conditions: untransfected K562 cells; for elevation of [Ca^2+ ]i in untransfected K562 cells (P2T receptor): 1 mM for ATP, UTP, ATPγS, BzATP, BzUTP; for effect on [Ca^2+ ]i in untransfected K562 cells: concentrations as high as 1 mM
Source text: (§3) Stable and Transient Transfections. To generate stable transfectants expressing the P2U receptor, K562 cells were transfected by electroporation (F. Toneguzzo et al., Mol. Cell. Biol. 6, 703 (1986)) with the neomycin-resistance plasmid pP2R1. pP2R1 is pRc/CMV containing a ~2.4 kb HindIII-NotI fragment of the P2U receptor cDNA, missing the first 6 nucleotides of the 5' untranslated region of the full length cDNA. control cells were stably transfected with pRc/CMV. Cells were sedimented at 200×g for 5 min at room temperature, rinsed once with phosphate-buffered saline (10 mM NaH2 PO4, pH 7.4, 120 mM NaCl, 5 mM KCl), and resuspended in phosphate-buffered saline at a final concentration of 4×10^7 cells/ml. The cells were chilled on ice for 10 min and then transferred in 0.5 ml aliquots to prechilled electroporation cuvettes. DNA (40 μg of pP2R1 linearized with PvuI) was added to the cell suspension, the cells were subjected to a single electrical pulse (1 kV, 25 μF) and the cuvettes were placed on ice. After 10 min, growth medium was added and the cells were incubated at 37° C. Fresh growth medium supplemented with 0.7 mg/ml G418 was added 48 h […], and the cells were incubated for 2 weeks to select for stable transfectants expressing neomycin resistance. Clonal cell lines were then isolated by transferring single cells to individual wells of a 96-well culture plate: each well contained 0.2 ml of conditioned growth medium filtered from K562 stock cultures, 0.2 ml of fresh growth medium, and 0.4 mg/ml G418. The clonal cell lines were cultured for three to four weeks in growth medium containing 0.4 mg/ml G418 and assayed for P2U receptor, the results shown are from one representative clonal cell line.
(§4) Cytoplasmic Free Calcium Measurements. Cells were sedimented at 200×g for 5 min at room temperature and washed once with 10 ml of Hepes-bufferedsaline (20 mM Hepes, pH 7.4, 120 mM NaCl, 5 mM KCl, 1 mM MgCl2, and 1 mM CaCl2). Washed cells were suspended in Hepes-buffered saline at 5×10^5 cells/ml, and stored (for up to 4 h) at 37° C. The concentration of cytoplasmic free calcium, [Ca^2+ ]i, was measured by dual-excitation spectrofluorometric analysis of cells loaded with fura-2, a fluorescent probe for calcium.

murine P2U receptor [3] = molecular target: T2, murine P2U receptor (Mus musculus, UniProt P35383); design: host or cells: Xenopus oocytes; conditions: Lustig et al. 1993, cited from earlier work; for stimulation of ^45 Ca^2+ efflux in oocytes: oocytes expressing the cloned receptor
murine P2U receptor [4] = molecular target: T2, murine P2U receptor; assay: cytoplasmic free calcium (fura-2) in K562 cells transfected with P2U receptor cDNA; assay type: cell-based; design: missing the first 6 nucleotides of the 5' untranslated region of the full length cDNA; expressed in transfected cells; host or cells: K562 human leukemia cells; conditions: for effect on [Ca^2+ ]i in stable transfectants / prevention of ATP-mediated increases in [Ca^2+ ]i (antagonism): concentrations as high as 1 mM, stable transfectants
Source text: as §3
To generate transient transfectants, K562 cells were transfected as above with 40 μg unlinearized plasmid pCCM6×1 or pP2R (Lustig et al., supra 1993). Cells were incubated for 48 h at 37° C. in 100 mm culture dishes containing 12 ml of growth medium and assayed for P2U receptor activity.
as §4

[5] = test system: 1321N1 human astrocytoma cells (uninfected or LSN-infected); assay: intracellular calcium by fura-2 fluorescence in uninfected or LSN-infected 1321N1 control cells; assay type: cell-based; conditions: uninfected or LSN-infected controls
Description: as §1, §2

human P2U receptor [6] = molecular target: T1, human P2U receptor; assay: inositol phosphate formation in 1321N1 cells expressing LHP2USN; assay type: cell-based; conditions: HP2U-1321N1 cells; apyrase in the medium during cell-labeling step
Description: as §1
To test this possibility more directly, we measured inositol phosphate formation. […] We hypothesized that during the lengthy labeling period 1321N1 cells released 5'-nucleotides into the medium in quantities sufficient to "self-activate" the receptor. […] Thus, it appears the cells are persistently stimulated by nucleotides in an autocrine fashion. The mode of release of nucleotides from the astrocytoma cells and the biological consequences of the persistent autocrine activation are unknown. To facilitate comparison with controls, the inositol phosphate studies were performed on cells pretreated with apyrase.

[7] = molecular target: T3, P2U receptor of CF/T43 cells (Homo sapiens, UniProt P41231); assay: intracellular calcium by fura-2 fluorescence in CF/T43 cells (endogenous receptor); assay type: cell-based; conditions: pretreatment
T3 construct: fura-2 calcium
Description: as §1, §2

T1 sequence (P41231 whole entry): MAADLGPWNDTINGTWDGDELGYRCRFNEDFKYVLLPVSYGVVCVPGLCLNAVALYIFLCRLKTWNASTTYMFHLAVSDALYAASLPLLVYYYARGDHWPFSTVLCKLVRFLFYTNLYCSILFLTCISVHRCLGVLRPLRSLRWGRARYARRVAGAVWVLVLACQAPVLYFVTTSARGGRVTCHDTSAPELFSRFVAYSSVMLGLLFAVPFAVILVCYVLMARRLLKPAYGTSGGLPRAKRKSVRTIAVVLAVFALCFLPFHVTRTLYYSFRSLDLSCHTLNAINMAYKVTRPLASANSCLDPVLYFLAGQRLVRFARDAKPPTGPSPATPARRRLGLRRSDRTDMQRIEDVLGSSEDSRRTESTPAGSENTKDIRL
T2 sequence (P35383 whole entry): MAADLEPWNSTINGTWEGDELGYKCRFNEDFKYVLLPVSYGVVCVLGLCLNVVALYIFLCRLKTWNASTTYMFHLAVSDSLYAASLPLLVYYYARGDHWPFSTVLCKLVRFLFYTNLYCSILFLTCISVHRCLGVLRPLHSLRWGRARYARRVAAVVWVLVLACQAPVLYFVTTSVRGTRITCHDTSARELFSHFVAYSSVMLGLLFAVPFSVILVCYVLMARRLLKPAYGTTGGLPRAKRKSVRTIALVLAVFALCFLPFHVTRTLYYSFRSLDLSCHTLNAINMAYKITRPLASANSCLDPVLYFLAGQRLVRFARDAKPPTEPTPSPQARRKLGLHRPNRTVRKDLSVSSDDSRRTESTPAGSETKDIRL
T3 sequence (P41231 whole entry): as the sequence (P41231 whole entry) above

Compound | effect on [Ca^2+ ]i in untransfected K562 cells [2] | effect on [Ca^2+ ]i in stable transfectants (murine P2U receptor [4]) | prevention of ATP-mediated increases in [Ca^2+ ]i (antagonism) (murine P2U receptor [4]) | further results
CSc1nc(N)c2ncn([C@@H]3O[C@H](COP(=O)(O)OP(=O)(O)OP(=O)(O)O)[C@@H](O)[C@H]3O)c2n1 [2-MeSATP, 2-methylthioATP] |  |  |  | efficacy / effect in concentration-effect curves (human P2U receptor [1]): had little effect; elevation of [Ca^2+ ]i in untransfected K562 cells (P2T receptor) [2]: elevated [Ca^2+ ]i; stimulation of ^45 Ca^2+ efflux in oocytes (murine P2U receptor [3]): did not stimulate; agonist activity at the P2U receptor (murine P2U receptor [4]; K562 stable transfectants): do not appear to act as agonists of the P2U receptor
Nc1ncnc2c1ncn2[C@@H]1O[C@H](COP(=O)(O)OP(=O)(O)O)[C@@H](O)[C@H]1O [ADP] |  |  |  | elevation of [Ca^2+ ]i in untransfected K562 cells (P2T receptor) [2]: elevated [Ca^2+ ]i; stimulation of ^45 Ca^2+ efflux in oocytes (murine P2U receptor [3]): did not stimulate; agonist activity at the P2U receptor (murine P2U receptor [4]; K562 stable transfectants): do not appear to act as agonists of the P2U receptor
Nc1ncnc2c1ncn2[C@@H]1O[C@H](COP(=O)(O)O)[C@@H](O)[C@H]1O [AMP] | had no effect | had no effect | did not prevent ATP-mediated increases | 
Nc1ncnc2c1ncn2[C@@H]1O[C@H](COP(=O)(O)OP(=O)(O)OP(O)(O)=S)[C@@H](O)[C@H]1O [ATPγS] |  |  |  | agonist activity at the P2U receptor in Xenopus oocytes (murine P2U receptor [3]; Xenopus oocytes): relatively potent agonist; agonist activity at the P2U receptor (murine P2U receptor [4]; K562 stable transfectants): relatively potent agonist; EC50 (murine P2U receptor [4]; K562 stable transfectants, read-out: EC50 for increases in [Ca^2+ ]i): ~9.6 µM
Nc1ncnc2c1ncn2[C@@H]1O[C@H](COP(=O)(O)OP(=O)(O)OP(=O)(O)O)[C@@H](OC(=O)c2ccc(C(=O)c3ccccc3)cc2)[C@H]1O [BzATP, 3'-O-(4-benzoyl)benzoyl adenosine 5'-triphosphate] |  |  |  | agonist activity at the P2U receptor (murine P2U receptor [4]; K562 stable transfectants): relatively weak agonists compared to ATP and UTP
O=C(O[C@H]1[C@@H](O)[C@H](n2ccc(=O)[nH]c2=O)O[C@@H]1COP(=O)(O)OP(=O)(O)OP(=O)(O)O)c1ccc(C(=O)c2ccccc2)cc1 [BzUTP, 3'-O-(4-benzoyl)benzoyl uridine 5'-triphosphate] |  |  |  | agonist activity at the P2U receptor (murine P2U receptor [4]; K562 stable transfectants): relatively weak agonists compared to ATP and UTP
Nc1ccn([C@@H]2O[C@H](COP(=O)(O)OP(=O)(O)OP(=O)(O)O)[C@@H](O)[C@H]2O)c(=O)n1 [CTP] | had no effect | had no effect | did not prevent ATP-mediated increases | 
Nc1nc2c(ncn2[C@@H]2O[C@H](COP(=O)(O)OP(=O)(O)OP(=O)(O)O)[C@@H](O)[C@H]2O)c(=O)[nH]1 [GTP] | had no effect | had no effect | did not prevent ATP-mediated increases | 
Cc1cn([C@H]2C[C@H](O)[C@@H](COP(=O)(O)OP(=O)(O)OP(=O)(O)O)O2)c(=O)[nH]c1=O [TTP] | had no effect | had no effect | did not prevent ATP-mediated increases | 
O=c1ccn([C@@H]2O[C@H](COP(=O)(O)OP(=O)(O)O)[C@@H](O)[C@H]2O)c(=O)[nH]1 [UDP] | had no effect | had no effect | did not prevent ATP-mediated increases | 
Nc1ncnc2c1ncn2[C@@H]1O[C@H](CO)[C@@H](O)[C@H]1O [adenosine] | had no effect | had no effect | did not prevent ATP-mediated increases | 
C[N+](C)(C)CCOC(N)=O [carbachol] |  |  |  | [Ca^2+ ]i response of uninfected or LSN-infected 1321N1 cells [5]: elicited responses in each case
Nc1ncnc2c1ncn2[C@@H]1O[C@H](COP(=O)(O)CP(=O)(O)OP(=O)(O)O)[C@@H](O)[C@H]1O [α,β-MeATP] |  |  |  | efficacy / effect in concentration-effect curves (human P2U receptor [1]): had little effect
Nc1ncnc2c1ncn2[C@@H]1O[C@H](COP(=O)(O)OP(=O)(O)NP(=O)(O)O)[C@@H](O)[C@H]1O [β,γ imidoATP] | had no effect | had no effect | did not prevent ATP-mediated increases | 
Nc1ncnc2c1ncn2[C@@H]1O[C@H](COP(=O)(O)OP(=O)(O)CP(=O)(O)O)[C@@H](O)[C@H]1O [β,γ methyleneATP] | had no effect | had no effect | did not prevent ATP-mediated increases | 
apyrase |  |  |  | baseline inositol phosphate levels (human P2U receptor [6]): reduced the baseline inositol phosphate levels to values near those of controls
pertussis toxin |  |  |  | inhibition of ATP-stimulated intracellular Ca^2+ mobilization [7]: 20-30%; inhibition of ATP-stimulated intracellular Ca^2+ mobilization (human P2U receptor [1]; HP2U-1321N1 cells, pretreatment): 20-30%
